The record followed here is US6939953B2, “Leukotriene receptor” (Schering Corporation, priority 1999, dated 2005).

The target in assay [1] is T1, SP9030 (human leukotriene receptor, SEQ ID NO: 2) (Homo sapiens, UniProt Q9NPC1).
T1 construct: The ORF of SP9030 was cloned in the expression vector pCR3.1 (pCR3.1-SP9030); expressed in transfected cells; host or cells: COS-7 cells (membranes)
T1 sequence (Q9NPC1 1-358): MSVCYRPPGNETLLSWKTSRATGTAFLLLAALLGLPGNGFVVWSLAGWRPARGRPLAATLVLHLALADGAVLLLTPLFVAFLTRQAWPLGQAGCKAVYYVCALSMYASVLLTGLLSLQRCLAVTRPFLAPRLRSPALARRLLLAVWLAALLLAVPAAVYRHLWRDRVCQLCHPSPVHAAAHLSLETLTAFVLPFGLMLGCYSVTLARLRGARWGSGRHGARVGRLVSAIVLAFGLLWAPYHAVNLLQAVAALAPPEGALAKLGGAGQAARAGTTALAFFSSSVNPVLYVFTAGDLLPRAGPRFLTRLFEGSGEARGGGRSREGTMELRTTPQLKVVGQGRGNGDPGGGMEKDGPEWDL
Description: Radioligand competition assay using ^3H-LTB4 as the label on membranes of COS-7 cells transfected with SP9030 cDNA. It counts as binding. Particulars: for Ki: read-out: Ki (competition with ^3H-LTB4); for Affinity of the receptor for the ligand (in words): summary statement. How it is done:
COS-7 cells, grown in DMEM/10% FCS until 80-90% confluence, were transfected with SuperFect agent (Giagene) at 20 μg DNA/150 mm plate. Forty eight hours after transfection, medium was changed to Opti-MEM or DMEM/Opti-MEM(1:1)/5% FCS. Cells were harvested 72 hours after transfection and membranes from the cells were prepared as follows. The cells were washed with 20 ml PBS without Ca^2+/Mg^2+ and incubated with 10 ml […] Hepes pH 7.4, 0.5 mM PMSF, 20 μg/ml aprotinin. The cells were scraped off the plate and vortexed. The cell suspension was then centrifuged at 13,000 g at 4° C. for 15 min. The pellets were re-suspended in 1.8 ml 50 mM Tris-Cl, pH 7.5 and vortexed. The membranes were homogenized with a 23-gauge needle. The protein concentration of the membrane preparations was determined with the BCA agents (Pierce).
Radioligand binding assays were performed to test the ability of SP9030, when expressed in cultured cells, to bind ^3H-labeled leukotriene. The ORF of SP9030 was cloned in the expression vector pCR3.1 (pCR3.1-SP9030). COS-7 cells were transfected with pCR3.1-SP9030 or pCR3.1 alone (mock transfection). Two days after transfection, the normal growth medium DMEM/10% FCS was replaced by either Opti-MEM or DMEM-Opti-MEM/5% FCS. The cells were allowed to grow one more day and then membranes were prepared for use in binding assay.
The reactions were incubated for 1 hour at 4° C. while rotated slowly. Multiscreen FB filters (Millipore) pre-soaked with 50 μl binding assay buffer for 1 hour at room temperature were used to filter the binding assays and the filters were washed twice with 100 μl 50 mM TrisCl, pH 7.5 (ice cold). Fifty microliters of scintillation fluid was added to the filters and counted to detect the bound radioligands. For radioligand competition assays, 160 μl binding assay buffer containing appropriate membranes were mixed with 20 μl of binding assay buffer containing 6% DMSO (v/v) and various concentrations of competing compounds. […] The final concentration of radioligand was 0.25 nM. Incubation conditions were the same as that used for the above described saturation assays.
COS-7 cells transfected with SP9030 cDNA were harvested three days after transfection and membrane prepared from cells used for binding assays.
(Displacement assays read how much labelled ligand stays bound in the presence of the test substance.)

The target in assay [2] is T2, SP9030 expressed in 293-EBNA cells (Homo sapiens, UniProt Q9NPC1).
T2 construct: expressed in transfected cells; host or cells: 293-EBNA cells
T2 sequence (Q9NPC1 1-358): T1 sequence (Q9NPC1 1-358)
Description: Intracellular Ca2+ flux measurement (FLIPR) in 293-EBNA cells expressing SP9030. Particulars: 293-EBNA cells transfected with SP9030, Fluo-3, FLIPR. The assay is classed as cell-based. The procedure: (§1) 293-EBNA cells, grown in DMEM containing 10% FCS until 80-90% confluence, were transfected with SuperFect transfection agent. The next day, cells were trypsinized off culture plates and washed with PBS lacking Ca^2+/Mg^2+. The cells were then seeded at a density of 35,000 cells per 100 μl medium) into 96-well plates that were pre-coated with poly-D-lysine (Becton Dickinson). The third day following transfection, medium was removed from cells and 100 μl Hank's balanced salt solution (lacking phenol red) containing 4 μM of Fluo-3, AM (Molecular Probes), 20 mM Hepes, pH 7.4, 0.1% (w/v) BSA and […] added and subsequently incubated at 37° C., 5% CO2 for 1 hour. The cells were then washed three times with 150 μl wash buffer containing HANK's BSS, 40 mM Hepes, pH 7.4 and […]. One hundred μl of the wash buffer was added after the final wash and Ca^2+ flux was measured after addition of 40 μl of wash buffer containing appropriate concentration of ligands. The FLIPR instrument (Molecular Device) was used in the measurement of Ca^2+ flux.
(§2) Intracellular function that the SP9030 receptor may mediate through activation by its ligand was examined in measurements of intracellular Ca^2+ flux.
(Calcium assays in cells follow changes in intracellular calcium, usually with a dye or a luminescent sensor.)

For assay [3], the system named is 293-EBNA cells mock transfected without SP9030 cDNA. Description: Intracellular Ca2+ flux measurement (FLIPR) in mock transfected 293-EBNA cells. It counts as cell-based. How it is done:
as §1, §2

Like-named read-outs stand apart in the source and are kept apart here.

As a reminder, the Ki is a measure of affinity in units of concentration, obtained from inhibition or displacement.

Consider `CC/C=C\C/C=C\C[C@@H](O)/C=C/C=C/C=C\[C@@H](O)CCCC(=O)O` [LTB5, leukotriene B5], for which the Ki in assay [1] (0.25 nM ^3H-LTB4, Ki=EC50/(1+[^3H-LTB4]/Kd), Kd […]) worked out at 8.6 ± 5.3 nM. Also, the “Affinity of the receptor for the ligand (in words)” value (“Affinity of the receptor” for short) in assay [1] was “high affinity”.

Take `CCCCC[C@H](O)/C=C/C=C\C/C=C\C/C=C\CCCC(=O)O` [15(5)-OH-5z, 8z, 11z, 13e)-eicosatetraenoic acid]: the “Affinity of the receptor” value in assay [1] is “high affinity”.

Take `CCCCC/C=C\C[C@@H](O)/C=C/C=C/C=C\[C@@H](O)CCCC(=O)O` [LTB4, leukotriene B4]: the “Cellular Ca2+ release” value in assay [2] is recorded as “activated cellular Ca^2+ release”. In assay [1], the “Affinity of the receptor” value is “high affinity”. Also, the “Ca2+ response to incubation with ligand” value in assay [3] was “did not respond”.

As to `CCCCC[C@H](O)/C=C/C=C\C=C\C=C\[C@@H](O)[C@@H](O)CCCC(=O)O` [lipoxin A4], in assay [1], the Ki was found to be 112 ± 40 nM and the “Affinity of the receptor” value is “high affinity”.
